Activity calls are given as the source filed them.

The EC50 is the concentration at which the effect is half-maximal. For orientation: AC50 means the concentration at which the activity in the assay is half-maximal.

Test [1] can be described thus: luciferase reporter signal suppression in cells – H4 neuroglioma cells, luminescence, dose response (AID 1990). It is filed as functional, cell-based.
A short description of test [2]: Luminescence Cell-Based Dose Response HTS to Identify Inhibitors of 5'UTR Stem-Loop Driven Prion Protein mRNA Translation in H4 Neuroglioblastoma Cells. [Related pubchem assays: 1827 (Project Summary), 1813 (Primary HTS)]. It is filed as functional.
Test [3] in a line: alpha-synuclein stem-loop luciferase translation blockers – H4 neuroglioma cells, luminescence, confirmation (AID 1988). The format is functional, cell-based.
The next test has as its target T1, Protein RecA (Mycobacterium tuberculosis, UniProt P9WHJ3).
T1 sequence (P9WHJ3 whole entry): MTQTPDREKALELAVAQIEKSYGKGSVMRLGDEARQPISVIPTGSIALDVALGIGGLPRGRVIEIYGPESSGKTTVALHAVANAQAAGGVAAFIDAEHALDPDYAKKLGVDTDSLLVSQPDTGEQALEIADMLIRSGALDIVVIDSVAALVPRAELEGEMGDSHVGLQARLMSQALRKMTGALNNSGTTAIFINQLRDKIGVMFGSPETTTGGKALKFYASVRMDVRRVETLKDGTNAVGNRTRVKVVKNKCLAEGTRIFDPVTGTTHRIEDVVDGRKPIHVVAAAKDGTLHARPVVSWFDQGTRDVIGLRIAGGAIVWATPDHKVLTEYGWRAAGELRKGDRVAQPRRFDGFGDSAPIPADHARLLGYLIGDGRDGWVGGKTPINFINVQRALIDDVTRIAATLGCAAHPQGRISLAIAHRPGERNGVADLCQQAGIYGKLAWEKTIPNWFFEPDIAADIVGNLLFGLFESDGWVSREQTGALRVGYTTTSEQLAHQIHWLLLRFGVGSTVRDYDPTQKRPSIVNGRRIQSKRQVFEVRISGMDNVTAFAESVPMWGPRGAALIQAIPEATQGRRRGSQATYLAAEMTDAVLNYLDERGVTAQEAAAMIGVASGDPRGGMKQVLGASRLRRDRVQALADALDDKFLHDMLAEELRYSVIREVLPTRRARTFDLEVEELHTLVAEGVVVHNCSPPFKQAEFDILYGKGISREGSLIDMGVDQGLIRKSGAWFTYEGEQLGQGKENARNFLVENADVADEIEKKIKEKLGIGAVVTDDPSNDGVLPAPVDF
As to the kind of experiment: Fluorescence Cell-Free Homogeneous Dose Retest to Identify Inhibitors of RecA-Intein Splicing Activity. [Related pubchem assays (depositor defined):AID2097, AID2223, AID489010, AID492950]. It is filed as functional.

Test [4] deals with T2, Replicative DNA helicase DnaB (Mycobacterium tuberculosis, UniProt P9WMR3).
T2 sequence (P9WMR3 whole entry): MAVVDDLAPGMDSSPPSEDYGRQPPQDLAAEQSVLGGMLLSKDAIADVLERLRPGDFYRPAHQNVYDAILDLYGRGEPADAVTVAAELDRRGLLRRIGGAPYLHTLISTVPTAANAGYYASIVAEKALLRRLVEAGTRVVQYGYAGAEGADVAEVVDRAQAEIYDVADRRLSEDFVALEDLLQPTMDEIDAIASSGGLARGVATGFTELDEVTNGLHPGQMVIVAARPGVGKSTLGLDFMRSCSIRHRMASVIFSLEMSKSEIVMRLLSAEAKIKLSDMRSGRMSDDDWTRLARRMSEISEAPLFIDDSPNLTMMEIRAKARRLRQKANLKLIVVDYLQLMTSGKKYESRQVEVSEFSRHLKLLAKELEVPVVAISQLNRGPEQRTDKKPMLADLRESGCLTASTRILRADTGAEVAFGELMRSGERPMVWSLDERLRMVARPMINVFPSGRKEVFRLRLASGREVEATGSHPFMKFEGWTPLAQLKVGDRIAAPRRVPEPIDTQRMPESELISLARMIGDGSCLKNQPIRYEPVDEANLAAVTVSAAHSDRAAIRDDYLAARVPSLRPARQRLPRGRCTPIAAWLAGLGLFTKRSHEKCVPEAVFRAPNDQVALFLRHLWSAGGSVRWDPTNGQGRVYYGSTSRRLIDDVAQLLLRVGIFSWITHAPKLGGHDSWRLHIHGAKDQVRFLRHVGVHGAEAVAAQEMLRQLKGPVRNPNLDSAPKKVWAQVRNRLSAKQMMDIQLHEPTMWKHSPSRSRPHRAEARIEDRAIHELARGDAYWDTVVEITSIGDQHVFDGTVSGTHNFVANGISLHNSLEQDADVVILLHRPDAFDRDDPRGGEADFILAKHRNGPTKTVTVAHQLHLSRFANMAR
As to the kind of experiment: DnaB intein splicing inhibitors, dose response, biochemical, cell-free fluorescence (AID 449749). It is filed as functional.

Test [5] in a line: Luminescence Cell-Based Dose Retest to Confirm Inhibitors of Cancer Stem Cells. [Related pubchem assays (depositor defined):AID2717, AID2721]. The format is functional. The note with it: Homo sapiens.
The target of a further test is Cytochrome P450 3A4 (Homo sapiens, UniProt P08684).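 Note: CYP3A4 tested as one member of a cytochrome P450 panel screen.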
The next test concerns the target T3, Cytochrome P450 1A2 (Homo sapiens, UniProt P05177).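 Note: PubChem cytochrome P450 panel assay, CYP1A2 panel member.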
T3 sequence (P05177 whole entry): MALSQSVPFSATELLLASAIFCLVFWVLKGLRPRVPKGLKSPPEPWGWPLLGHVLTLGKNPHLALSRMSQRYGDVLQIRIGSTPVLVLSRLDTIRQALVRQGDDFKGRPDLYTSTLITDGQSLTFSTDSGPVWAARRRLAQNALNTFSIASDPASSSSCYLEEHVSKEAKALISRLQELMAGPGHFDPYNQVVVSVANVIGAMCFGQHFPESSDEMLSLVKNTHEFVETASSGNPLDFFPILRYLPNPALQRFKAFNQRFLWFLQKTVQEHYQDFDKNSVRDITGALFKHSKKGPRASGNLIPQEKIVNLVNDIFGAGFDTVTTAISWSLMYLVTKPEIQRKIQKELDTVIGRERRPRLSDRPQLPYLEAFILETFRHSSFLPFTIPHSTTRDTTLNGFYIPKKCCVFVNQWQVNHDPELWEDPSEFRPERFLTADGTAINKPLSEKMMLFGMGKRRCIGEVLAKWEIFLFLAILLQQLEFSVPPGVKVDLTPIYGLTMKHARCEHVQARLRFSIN

The target of another test is Cytochrome P450 2C19 (Homo sapiens, UniProt P33261). Kind of test: Cytochrome panel assay with activity outcomes. Panel member name: p450-cyp2c19 Compounds with AC50 equal or less than 10 uM are considered active. To be noted: read-out: AC50. It is filed as functional.
In a further test the target is Cytochrome P450 2C9 (Homo sapiens, UniProt P11712).
The nature of test [6]: NIH3T3 cell viability loss – ATP luminescence, mouse fibroblasts, counter-screen, dose response (AID 2010).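 Note: cells exposed to compound for about 90 hours before reading.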 The format is functional, cell-based. A general note: A counterscreen serves to expose hits that act by an unwanted route or on another target.
The nature of test [7]: Trypanosoma cruzi growth suppression in host cells – NIH3T3 host cells, beta-gal luminescence, confirmation (AID 2044).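 Note: intracellular parasites grown in NIH/3T3 mouse fibroblasts as host cells; luminescent beta-galactosidase reporter signal from transgenic T. cruzi replicating inside host cells; inhibitors lower the luminescence signal.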 The format is functional, cell-based.
Test [8] concerns Streptococcus sp. 'group A'. Kind of test: Streptococcus pyogenes SK(-)GAS viability under kanamycin – luminescence, BacTiterGlo, confirmation, counter-screen for streptokinase expression inhibitor project, dose response (AID 1900). It is filed as functional, organism-based.
The test system of a further test is Streptococcus. Kind of test: GAS UMAA2166 growth inhibition – luminescence, BacTiterGlo, counter-screen for streptokinase expression inhibitor project, dose response (AID 1915).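 Note: potency for reduction of bacterial viability or growth.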 The format is functional, organism-based.

Cytochrome P450 3A4, sequence (P08684 whole entry): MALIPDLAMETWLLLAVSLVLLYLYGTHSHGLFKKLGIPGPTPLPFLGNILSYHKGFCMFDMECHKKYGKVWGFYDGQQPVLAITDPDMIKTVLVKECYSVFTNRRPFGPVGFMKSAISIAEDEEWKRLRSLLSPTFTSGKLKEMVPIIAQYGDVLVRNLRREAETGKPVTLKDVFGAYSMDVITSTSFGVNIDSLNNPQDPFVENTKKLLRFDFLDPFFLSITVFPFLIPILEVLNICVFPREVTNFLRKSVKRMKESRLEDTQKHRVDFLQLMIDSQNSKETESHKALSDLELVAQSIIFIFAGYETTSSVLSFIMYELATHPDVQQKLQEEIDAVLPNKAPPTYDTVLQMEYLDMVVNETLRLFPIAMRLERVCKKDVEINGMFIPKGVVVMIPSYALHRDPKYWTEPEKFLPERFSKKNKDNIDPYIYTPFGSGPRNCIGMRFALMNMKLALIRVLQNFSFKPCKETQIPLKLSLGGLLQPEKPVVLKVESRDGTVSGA
Cytochrome P450 2C9, sequence (P11712 whole entry): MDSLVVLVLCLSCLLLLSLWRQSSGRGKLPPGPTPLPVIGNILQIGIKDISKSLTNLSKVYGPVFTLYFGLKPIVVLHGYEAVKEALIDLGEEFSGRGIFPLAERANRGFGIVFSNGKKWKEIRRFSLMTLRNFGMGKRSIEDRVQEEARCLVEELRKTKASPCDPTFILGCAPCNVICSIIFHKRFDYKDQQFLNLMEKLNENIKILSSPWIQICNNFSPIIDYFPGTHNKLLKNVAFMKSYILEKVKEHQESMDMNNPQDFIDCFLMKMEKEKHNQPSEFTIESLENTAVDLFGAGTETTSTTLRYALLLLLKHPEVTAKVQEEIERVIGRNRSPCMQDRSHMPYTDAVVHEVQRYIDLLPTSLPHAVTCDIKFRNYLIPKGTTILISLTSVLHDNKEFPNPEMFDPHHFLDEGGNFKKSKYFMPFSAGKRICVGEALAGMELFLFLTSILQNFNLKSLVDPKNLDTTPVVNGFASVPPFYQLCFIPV
Cytochrome P450 2C19, sequence (P33261 whole entry): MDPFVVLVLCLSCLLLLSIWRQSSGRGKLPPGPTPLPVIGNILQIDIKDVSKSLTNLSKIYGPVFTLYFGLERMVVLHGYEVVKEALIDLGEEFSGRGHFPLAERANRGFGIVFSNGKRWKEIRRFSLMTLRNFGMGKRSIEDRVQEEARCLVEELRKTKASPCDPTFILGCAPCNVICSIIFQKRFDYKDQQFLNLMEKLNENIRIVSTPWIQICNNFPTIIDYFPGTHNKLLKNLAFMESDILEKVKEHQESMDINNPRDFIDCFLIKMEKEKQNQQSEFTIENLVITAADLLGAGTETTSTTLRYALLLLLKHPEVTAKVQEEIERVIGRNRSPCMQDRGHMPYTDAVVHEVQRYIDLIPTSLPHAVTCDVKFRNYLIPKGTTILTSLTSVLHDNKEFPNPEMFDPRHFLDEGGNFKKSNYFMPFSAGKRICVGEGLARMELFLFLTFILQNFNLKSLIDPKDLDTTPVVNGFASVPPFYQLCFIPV

`CCc1nnc(NC(=O)c2ccc(S(=O)(=O)N(C)Cc3ccccc3)cc2)o1`: the 50% effective concentration (EC50) in test [1], in test [2] and in [3] was > 120 µM (not active) throughout.

With `N#Cc1nc(Cc2cccc3ccccc23)oc1N1CCCCC1`, the EC50 in test [1] was 16.2 µM (active); in test [2] it was > 120 µM (not active); in [3], > 120 µM (not active).

As for `Cn1cnc([N+](=O)[O-])c1Sc1ccc(C(C)(C)C)cc1`, the EC50 at Protein RecA is 14.1 µM (active). Moreover, the AC50 in [4] was 13.6 µM (active).

In the case of `COc1ccc(/C=C/c2cc(C(=O)O)c3ccccc3n2)cc1`, the EC50 was 3.67 µM (active) in test [1], 2.83 µM (active) in test [2] and 6.45 µM (active) in [3].

In the case of `COc1ccc(-c2sc3ccc(N4CCOCC4)cc3c2C#CCCO)cc1`, in test [5], the AC50 is 3 µM (active).

As to `CC(=O)c1ccc(OC(=O)c2cccs2)cc1`, the EC50 at Protein RecA was 12.2 µM (active). For the same compound, the AC50 in [4] is 24.3 µM (active).

Take `O=C1c2ccccc2C(=O)C12Cc1ccccc1N1CCN(c3ccccc3)CC12` (stereo unspecified): the EC50 in test [1], in test [2] and in test [3] was > 120 µM (not active) in each case.

Consider `CCCS(=O)(=O)N1CCCC(C(=O)N2CCN(c3ccccc3)CC2)C1` (stereo unspecified), for which the AC50 on Cytochrome P450 3A4 was 14.1 µM (inconclusive); on Cytochrome P450 1A2, 0.00501 µM (inconclusive); on Cytochrome P450 2C19, 6.31 µM (inconclusive); on Cytochrome P450 2C9 it was 14.1 µM (inconclusive).

With `Cc1ccc(Cl)cc1N1CCN(C(CC(C)C)c2nnnn2CC2CCCO2)CC1` (stereo unspecified), the AC50 in test [5] is 0.631 µM (active).

For the compound `CCCc1n[nH]c2c1C(c1ccccc1OCC)C(C#N)=C(N)O2` (stereo unspecified), at Protein RecA, the EC50 was 9.01 µM (active). In test [4], the AC50 is 237 µM (active).

Regarding `Nc1nc(NCCOCCO)nc(NC2CCCCC2)c1[N+](=O)[O-]`, the EC50 in [1] is 16.7 µM (active); in [2], 0.14 µM (active); in test [3], 17.3 µM (active).

For the compound `CC(C)[C@@H]1CC[C@@H](C)c2c1n[nH]c2-c1ccccc1`, the AC50 in [5] is 4.99 µM (active).

In the case of `Cc1cc(N)n(-c2ccc(S(N)(=O)=O)cc2[N+](=O)[O-])n1`, in test [5], the AC50 was > 195 µM (inactive).

As for `CCOC(=O)c1sc2nc(CC(=O)OC)nc(N3CCN(c4ccc(OC)cc4)CC3)c2c1C`, the EC50 in test [1] is > 120 µM (not active); in test [6], > 60 µM (not active); in test [7], 1.91 µM (active); in test [2], > 120 µM (not active); in [3], 89.9 µM (active).

On to `Nc1nc(NCc2ccco2)nc(Nc2ccc(F)cc2)c1[N+](=O)[O-]`, for which the EC50 in test [1] was 35 µM (active); in test [2], > 120 µM (not active); in [3], > 120 µM (not active).

For the compound `CCOc1c2ccc(C(=O)NCc3ccco3)cc2nn1CC`, the AC50 on Cytochrome P450 3A4 was 31.6 µM (inconclusive); at Cytochrome P450 2C9, 10 µM (inconclusive).

As to `CC(=O)c1ccc(Oc2ncnc(N)c2[N+](=O)[O-])cc1`, the EC50 in [1] is > 120 µM (not active); in test [2] it was 13.6 µM (active); in [3] it was 11.2 µM (active).

For `C[C@@H]1CN([C@H](C)CO)C(=O)c2cc(NC(=O)Nc3ccc(C(F)(F)F)cc3)ccc2O[C@H]1CN(C)S(=O)(=O)c1ccc(Cl)cc1`, the AC50 in test [5] was 2.71 µM (active).

As to `Cc1cccc(NC(=O)c2cc(=O)c3ccccc3o2)n1`, the AC50 at Cytochrome P450 3A4 is 25.1 µM (inconclusive); on Cytochrome P450 2C19 it was 14.1 µM (inconclusive); at Cytochrome P450 2C9, 3.16 µM (inconclusive).

Take `CC1CCc2cccc3c2N1c1cc(C#N)c(C#N)cc1O3` (stereo unspecified): the figures for the EC50 in test [1], in test [2] and in test [3] were 8.54 µM (active), 88.7 µM (active) and 33.4 µM (active), respectively.

Consider `CCc1ccc(Nc2nc(N)nc(CSc3nc4ccccc4s3)n2)cc1`, for which the AC50 in [5] is > 195 µM (inactive).

With `CCCc1nnc(NC(=O)c2c(O)c3cccc4c3n(c2=O)CCC4)s1`, the EC50 in [1] is 99.5 µM (active); in [8], 2.53 µM (active); in the test with Streptococcus it was 3.1 µM (active); in test [2], > 120 µM (not active); in [3] it was > 120 µM (not active).

As to `COC(=O)Nc1nc(-c2ccccc2)c(C(=O)c2ccc(Cl)cc2)s1`, the half-maximal effective concentration (EC50) in test [1] is 7.45 µM (active); in test [2], 7.87 µM (active); in test [3] it was 0.179 µM (active).

Regarding `CCOC(=O)C(C#N)C(c1cccnc1)c1c(C)[nH][nH]c1=O` (stereo unspecified), at Protein RecA, the half-maximal effective concentration (EC50) was 1.81 µM (active). The half-maximal activity concentration (AC50) in test [4] was 6.32 µM (active).

For the compound `Cc1n[nH]c2c1C(CC(C)C)C(C#N)=C(N)O2` (stereo unspecified), the EC50 at Protein RecA was 3.84 µM (active). The AC50 in test [4] is 13.1 µM (active).

On to `Oc1nc(CN2CCN(c3ccccn3)CC2)nc2c(Br)cc(Br)cc12`, for which the AC50 in test [5] is 2.76 µM (active).

Turning to `Cc1ccc(Nc2nc(N)c([N+](=O)[O-])c(NCc3ccco3)n2)cc1C`, the half-maximal activity concentration (AC50) in [5] is 6.48 µM (active).

Regarding `O=C(CCCN1C(=O)/C(=C\c2cccs2)SC1=S)Nc1ccc(O)cc1C(=O)O`, at Protein RecA, the EC50 is 12.7 µM (active). The AC50 in test [4] was 17.7 µM (active).

The values above are taken from ChEMBL document CHEMBL1201862, “PubChem BioAssay data set” (2004).
